In the test the test system is H929 and MM1R myeloma cell lines. The test is described as follows: MTS cellular cytotoxicity assay, single agent. It is filed as cell-based. How it is done: H929 and MM1R myeloma cell lines were cultured in vitro and cellular cytotoxicity was measured by MTS ([3-(4,5-dimethylthiazol-2-yl)-5-(3-carboxymethoxyphenyl)-2-(4-sulfophenyl)-2H-tetrazolium, inner salt) assay. The effect of the combination in terms of additive, antagonistic, or synergistic activity was assessed by Valeriote and Lin's method (Valeriote and Lin, Cancer Chemother Rep 1975; 59:895-900). […] To test the effect of the combination of all three drugs, cells were cultured with bendamustine (15 μg/ml) and doxorubicin (0.03 μg/ml) for 48 hours, and bortezomib (2.5 nmol/L) was added in the last 24 hours, and cytotoxicity was assayed.

We go through 1 compound from US20110217258A1, “Combined Use of Bendamustine, Doxorubicin and Bortezomib for the Treatment of Multiple Myeloma” (Indiana University Research and Technology Corporation, priority 2008, published 2011).

`Cl.Cn1c(CCCC(=O)O)nc2cc(N(CCCl)CCCl)ccc21` [bendamustine, 1H-benzimidazole-2-butanoic acid, 5-[bis(2-chloroethyl)amino]-1-methyl-, monohydrochloride]: the CC50 (48 h, read-out: concentration lethal to 50% of cells (LC50)) was 34.9 ± 3.4 µg/mL. The “MM cell death induced by drug alone” value (bendamustine alone, repeated experiments) was “time and dose-dependent”.
